Experimental data taken from patent publication US20200255492A1, “LEPTIN PEPTIDES AND THEIR USE FOR TREATING NEUROLOGICAL DISORDERS” (UNIVERSITY OF DUNDEE, priority 2017, published 2020).

Test system: mitochondria
Assay: MitoRed analysis of mitochondrial morphology after 6-OHDA (cellular Parkinson's Disease model)
Assay type: cell-based
Details: 100 μM; 1 hour
Description: Cultures were established on 3 separate occasions in quadruplicate and stained with MitoRED to identify mitochondria after 1 hour of treatment. Statistical significance relative to untreated control is denoted with ** where P<0.01 and *** where P<0.001. Representative images of 100 μM 6-OHDA-treated MitoRED stained cultures (C) and 100 μM 6-OHDA and leptin116-130 co-treated MitoRED stained cultures are shown. Scale bar represents […].
The human neuroblastoma cell line, SH-SY5Y (ECACC, UK) was maintained in Dulbecco's Modified Eagle Medium supplemented with glucose ([…]) and 10% (v/v) cosmic calf serum (Fisher Scientific, UK) at 37° C. in a humidified atmosphere of 5% CO2, 95% air and allowed to reach 70-80% confluence before seeding. Cells (passage 10-18) were plated at 2×10^5 cells on 13 mm borosilicate class coverslips or at 10 000 cells per well in 96 well tissue culture plates (Nunc, VWR, UK) prior to treatment. Reagents used were (from Sigma UK unless stated) 1 nM human leptin, leptin (116-121), leptin (117-122) and leptin (117-125); 0.0001-1 nm murine leptin fragments leptin (116-121), leptin (117-122) and leptin (116-130); 100 μM 6-hydroxydopamine; 10 μM CuCl2; […] Aβ1-42.
Cells were treated with pre-warmed cell culture medium containing 1 μM MitoRed ((9-[2-(4′-Methylcoumarin-7′-oxycarbonyl)phenyl]-3,6-bis(diethylamino)xanthylium chloride) and returned to the incubator for 45 minutes. Following fixation in NBF for 15 minutes, cells were washed 3 times in PBS. Coverslips were mounted in fluorescence mountant onto microscope slides and imaged on the Zeiss Axio MR2 microscope. The mean mitochondrial area and index of fragmentation (number of mitochondria: total area of mitochondrial material) were calculated using Fiji.

SMILES: NCCc1cc(O)c(O)cc1O [6-OHDA, 6-hydroxydopamine, reference compound]
- cross-sectional area of individual mitochondria, 6-OHDA alone: increase in the cross-sectional area of individual mitochondria
- mitochondrial fragmentation, 6-OHDA alone: decrease in mitochondrial fragmentation
